Laboratory results as given in ChEMBL document CHEMBL5505952, “Targeting SARS-CoV-2 entry processes: The promising potential and future of host-targeted small-molecule inhibitors” (Eur J Med Chem, 2024).
*1 amine or outer side, *2 acyl side, *3 side chain or, on linkers, in order; H or OH if unused. Where a SMILES comes first, the peptide text is derived from it. [ ]: non-standard residue; d: D form. The star is where a group is joined. X1 = N=C(N)NCCC[C@H](N[*:1])C(=O)c1nc2ccc(C(=O)[*:2])cc2s1; Cbz = O=C(OCc1ccccc1)*

What was measured:
[1] = biological target: T1, 1-phosphatidylinositol 3-phosphate 5-kinase (Homo sapiens, UniProt Q9Y2I7); assay: Binding affinity to N-terminal His-tagged human PIKfyve expressed in Sf9 cells assessed as dissociation constant
SARS-CoV-2 [2] = assay: Antiviral activity against VSV-S pseudotyped SARS-CoV-2 infected in human Calu-3 cells assessed as inhibition of viral growth; format: functional, organism-based; conditions: Severe acute respiratory syndrome coronavirus 2, Calu-3
SARS-CoV-2 [3] = assay: Antiviral activity against SARS-CoV-2 WA1/2020 infected in human Calu-3 cells preincubated for 2 hrs followed by viral infection and measured after 48 hrs by microscopy analysis; format: functional, organism-based; conditions: Severe acute respiratory syndrome coronavirus 2, WA1/2020, Calu-3
SARS-CoV-2 [4] = assay: microbe, parasite or virus in culture; conditions: Severe acute respiratory syndrome coronavirus 2, Calu-3, 48 h
SARS-CoV-2 [5] = assay: microbe, parasite or virus in culture; conditions: Severe acute respiratory syndrome coronavirus 2, Vero C1008, 24 h
SARS-CoV-2 [6] = format: functional, organism-based; conditions: Severe acute respiratory syndrome coronavirus 2, Huh-7
[7] = biological target: Replicase polyprotein 1ab (Severe acute respiratory syndrome coronavirus 2, UniProt P0DTD1); assay: Inhibition of SARS-CoV-2 MPro expressed in Escherichia coli BL21 (DE3) using Dabcyl-KTSAVLQSGFRKME-Edans as substrate incubated for 1 hr by fluorescence based analysis
SARS-CoV-2 [8] = assay: microbe, parasite or virus in culture; conditions: Severe acute respiratory syndrome coronavirus 2, Huh-7
SARS-CoV-2 [9] = assay: microbe, parasite or virus in culture; conditions: Severe acute respiratory syndrome coronavirus 2, Vero C1008, 24 h; remark: listed apart in the source
SARS-CoV-2 [10] = format: functional, organism-based; conditions: Severe acute respiratory syndrome coronavirus 2, Vero C1008, 48 h
SARS-CoV-2 [11] = format: functional, organism-based; conditions: Severe acute respiratory syndrome coronavirus 2, Omicron B.1.617.2 delta, 293T/ACE2, 48 h
SARS-CoV-2 [12] = format: functional, organism-based; conditions: Severe acute respiratory syndrome coronavirus 2, USA-WA1/2020, Huh-7
SARS-CoV-2 [13] = assay: Antiviral activity against SARS-CoV-2 USA-WA1/2020 infected in african green monkey Vero C1008 cells assessed as reduction in viral replication by qRT-PCR analysis; format: functional, organism-based; conditions: Severe acute respiratory syndrome coronavirus 2, USA-WA1/2020, Vero C1008
SARS-CoV-2 [14] = assay: Antiviral activity against SARS-CoV-2 USA-WA1/2020 infected in human Calu-3 cells assessed as reduction in viral replication by qRT-PCR analysis; format: functional, organism-based; conditions: Severe acute respiratory syndrome coronavirus 2, USA-WA1/2020, Calu-3
[15] = biological target: T1, 1-phosphatidylinositol 3-phosphate 5-kinase; assay: Inhibition of PIKfyve (unknown origin)
SARS-CoV-2 [16] = format: functional, organism-based; conditions: Severe acute respiratory syndrome coronavirus 2, Vero C1008, 48 h; remark: listed apart in the source
Procathepsin L [17] = biological target: T2, Procathepsin L (Homo sapiens, UniProt P07711); assay: Inhibition of Cathepsin L (unknown origin)
SARS-CoV-2 [18] = format: functional, organism-based; conditions: Severe acute respiratory syndrome coronavirus 2, Huh-7; remark: listed apart in the source
SARS-CoV-2 [19] = assay: microbe, parasite or virus in culture; conditions: Severe acute respiratory syndrome coronavirus 2, Huh-7; remark: listed apart in the source
SARS-CoV-2 [20] = assay: microbe, parasite or virus in culture; conditions: Severe acute respiratory syndrome coronavirus 2, USA-WA1/2020, Vero 76, 72 h
SARS-CoV-2 [21] = format: functional, organism-based; conditions: Severe acute respiratory syndrome coronavirus 2, NRC-03-nhCoV, Vero C1008, 72 h
Procathepsin L [22] = biological target: T2, Procathepsin L; assay: Inhibition of human Cathepsin L using Cbz-Phe-Arg-AMC as substrate measured for 10 mins by fluorescence based analysis
SARS-CoV-2 [23] = assay: microbe, parasite or virus in culture; conditions: Severe acute respiratory syndrome coronavirus 2, A549-ACE2
SARS-CoV-2 [24] = assay: microbe, parasite or virus in culture; conditions: Severe acute respiratory syndrome coronavirus 2, B.1, VeroE6/TMPRSS2, 48 h
SARS-CoV-2 [25] = format: functional, organism-based; conditions: Severe acute respiratory syndrome coronavirus 2, Vero C1008
[26] = biological target: Spike glycoprotein/Angiotensin-converting enzyme 2 (Severe acute respiratory syndrome coronavirus 2, UniProt P0DTC2+Q9BYF1); assay: Inhibition of SARS-CoV-2 spike protein RBD- human ACE2 interaction; format: protein assay
[27] = tested on: Respiratory syncytial virus; assay: microbe, parasite or virus in culture; conditions: human respiratory syncytial virus, A2, HEp-2
SARS-CoV-2 [28] = format: functional, organism-based; conditions: Severe acute respiratory syndrome coronavirus 2, Vero C1008, 72 h
SARS-CoV-2 [29] = format: functional, organism-based; conditions: Severe acute respiratory syndrome coronavirus 2, NRC-03-nhCoV, Vero C1008

T1 sequence (Q9Y2I7 whole entry): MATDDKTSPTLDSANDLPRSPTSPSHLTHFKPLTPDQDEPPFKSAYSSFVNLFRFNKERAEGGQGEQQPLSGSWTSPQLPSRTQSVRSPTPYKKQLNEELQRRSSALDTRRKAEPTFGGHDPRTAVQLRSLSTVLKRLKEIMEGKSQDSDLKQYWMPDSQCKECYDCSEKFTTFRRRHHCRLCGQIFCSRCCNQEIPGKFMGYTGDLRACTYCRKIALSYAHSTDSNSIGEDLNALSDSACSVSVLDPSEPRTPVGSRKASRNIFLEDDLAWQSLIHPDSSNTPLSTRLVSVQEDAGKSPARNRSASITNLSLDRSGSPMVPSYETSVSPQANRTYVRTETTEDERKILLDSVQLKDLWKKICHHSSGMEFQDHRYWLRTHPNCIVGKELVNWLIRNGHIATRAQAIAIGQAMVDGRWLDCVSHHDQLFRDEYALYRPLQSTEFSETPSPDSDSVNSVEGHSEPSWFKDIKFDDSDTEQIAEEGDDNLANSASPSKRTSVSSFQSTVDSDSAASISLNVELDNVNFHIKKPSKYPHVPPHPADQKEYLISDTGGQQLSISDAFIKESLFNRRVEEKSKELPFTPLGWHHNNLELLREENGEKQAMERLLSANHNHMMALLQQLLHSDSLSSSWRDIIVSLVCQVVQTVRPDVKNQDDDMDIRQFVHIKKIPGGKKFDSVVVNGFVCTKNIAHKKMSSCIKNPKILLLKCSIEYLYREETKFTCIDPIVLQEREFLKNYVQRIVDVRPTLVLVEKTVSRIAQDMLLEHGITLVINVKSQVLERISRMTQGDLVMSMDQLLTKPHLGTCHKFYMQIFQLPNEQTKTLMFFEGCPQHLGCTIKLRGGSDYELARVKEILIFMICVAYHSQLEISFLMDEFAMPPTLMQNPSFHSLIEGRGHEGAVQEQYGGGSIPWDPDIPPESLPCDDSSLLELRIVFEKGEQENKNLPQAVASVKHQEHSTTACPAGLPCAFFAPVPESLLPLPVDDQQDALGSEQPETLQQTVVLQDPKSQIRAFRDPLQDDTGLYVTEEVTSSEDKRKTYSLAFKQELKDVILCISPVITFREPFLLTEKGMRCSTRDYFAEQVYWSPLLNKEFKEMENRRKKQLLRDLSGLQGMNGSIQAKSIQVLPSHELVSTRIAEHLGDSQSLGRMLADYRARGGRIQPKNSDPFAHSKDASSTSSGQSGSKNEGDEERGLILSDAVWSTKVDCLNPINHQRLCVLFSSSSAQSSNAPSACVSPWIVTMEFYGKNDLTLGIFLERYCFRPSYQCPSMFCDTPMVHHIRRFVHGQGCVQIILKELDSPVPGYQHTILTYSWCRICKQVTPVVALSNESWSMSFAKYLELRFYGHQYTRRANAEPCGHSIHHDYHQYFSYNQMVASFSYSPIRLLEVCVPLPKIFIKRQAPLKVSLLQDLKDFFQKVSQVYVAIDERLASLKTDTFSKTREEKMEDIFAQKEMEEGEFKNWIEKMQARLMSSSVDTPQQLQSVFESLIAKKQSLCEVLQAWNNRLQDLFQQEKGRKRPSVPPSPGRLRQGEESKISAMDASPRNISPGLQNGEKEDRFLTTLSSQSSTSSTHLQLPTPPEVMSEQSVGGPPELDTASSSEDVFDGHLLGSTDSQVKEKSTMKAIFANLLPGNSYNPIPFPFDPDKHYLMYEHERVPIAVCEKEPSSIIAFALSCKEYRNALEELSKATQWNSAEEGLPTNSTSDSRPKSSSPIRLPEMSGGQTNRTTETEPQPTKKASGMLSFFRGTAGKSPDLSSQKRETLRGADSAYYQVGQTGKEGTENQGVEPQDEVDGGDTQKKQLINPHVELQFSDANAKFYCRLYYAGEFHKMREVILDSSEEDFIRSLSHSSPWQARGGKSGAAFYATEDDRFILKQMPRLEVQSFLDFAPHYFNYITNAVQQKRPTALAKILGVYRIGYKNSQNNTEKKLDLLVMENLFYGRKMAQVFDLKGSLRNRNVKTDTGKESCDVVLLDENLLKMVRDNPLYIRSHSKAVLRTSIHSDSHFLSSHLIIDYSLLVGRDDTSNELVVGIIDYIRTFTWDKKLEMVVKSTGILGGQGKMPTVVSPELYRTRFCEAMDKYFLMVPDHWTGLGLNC
T2 sequence (P07711 whole entry): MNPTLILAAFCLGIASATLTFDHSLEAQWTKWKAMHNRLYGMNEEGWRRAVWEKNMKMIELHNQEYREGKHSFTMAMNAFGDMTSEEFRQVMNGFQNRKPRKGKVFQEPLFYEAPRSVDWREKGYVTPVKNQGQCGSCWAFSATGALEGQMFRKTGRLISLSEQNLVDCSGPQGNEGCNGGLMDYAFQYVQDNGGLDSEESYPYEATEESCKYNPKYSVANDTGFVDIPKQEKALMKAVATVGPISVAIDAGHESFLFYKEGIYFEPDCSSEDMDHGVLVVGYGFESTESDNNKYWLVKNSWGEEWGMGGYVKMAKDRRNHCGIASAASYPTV
Chain of Spike glycoprotein/Angiotensin-converting enzyme 2 (Q9BYF1 18-805 limits assumed, other chains not shown): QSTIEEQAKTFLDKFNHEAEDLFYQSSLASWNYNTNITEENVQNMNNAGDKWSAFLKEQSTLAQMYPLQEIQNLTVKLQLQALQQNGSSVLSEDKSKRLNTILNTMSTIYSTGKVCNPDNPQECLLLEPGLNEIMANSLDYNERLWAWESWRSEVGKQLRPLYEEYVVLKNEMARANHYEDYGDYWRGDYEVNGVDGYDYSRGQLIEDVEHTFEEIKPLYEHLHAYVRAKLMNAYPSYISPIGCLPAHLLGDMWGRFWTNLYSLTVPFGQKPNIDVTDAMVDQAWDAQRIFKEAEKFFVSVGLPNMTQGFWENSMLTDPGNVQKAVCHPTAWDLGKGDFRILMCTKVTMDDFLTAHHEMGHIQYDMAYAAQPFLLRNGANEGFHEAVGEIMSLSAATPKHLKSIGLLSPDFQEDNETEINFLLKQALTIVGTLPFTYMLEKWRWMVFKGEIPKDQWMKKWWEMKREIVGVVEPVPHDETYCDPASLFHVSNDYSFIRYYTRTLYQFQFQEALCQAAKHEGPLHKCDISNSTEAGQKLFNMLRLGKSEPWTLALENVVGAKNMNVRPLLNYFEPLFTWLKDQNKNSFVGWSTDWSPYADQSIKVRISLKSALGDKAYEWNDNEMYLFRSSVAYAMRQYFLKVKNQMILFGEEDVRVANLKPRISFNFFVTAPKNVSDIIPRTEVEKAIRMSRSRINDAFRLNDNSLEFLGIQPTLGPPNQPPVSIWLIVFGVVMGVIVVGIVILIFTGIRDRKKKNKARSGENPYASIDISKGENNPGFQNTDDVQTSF

Compound C1=Nc2ccccc2/C1=C\NNc1nc(Nc2ccccc2)nc(N2CCOCC2)n1 has a Kd [1] of 0.91 nM.

Work on CC(=O)NCC(=O)N[C@@H](CCC(N)=O)C(=O)N[C@@H](Cc1ccccc1)C(=O)N[C@@H](CCCNC(=N)N)C(=O)c1nc2ccccc2s1 yielded an EC50 (SARS-CoV-2 [2]) of 0.43 nM and an IC50 (SARS-CoV-2 [3]) of 74 nM.

Work on CCN(CC)CCNC(=O)c1c(C)[nH]c(/C=C2\C(=O)Nc3ccc(F)cc32)c1C [SUNITINIB] yielded an EC50 (SARS-CoV-2 [4]) of 2900 nM and an EC50 (SARS-CoV-2 [5]) of 2400 nM.

In the case of CC(=O)N[C@@H](CC(C)C)C(=O)N[C@@H](CC(C)C)C(=O)N[C@H](C=O)CCCNC(=N)N, the EC50 (SARS-CoV-2 [6]) is reported as 10600 nM, the IC50 [7] is reported as 127000 nM and the EC50 (SARS-CoV-2 [8]) is reported as 39300 nM.

In the case of CC(=O)N1CCC[C@H]1C(=O)N[C@@H](CCC(N)=O)C(=O)N[C@@H](Cc1ccccc1)C(=O)N[C@@H](CCCNC(=N)N)C(=O)c1nc2ccccc2s1, the EC50 (SARS-CoV-2 [2]) is reported as 0.86 nM and the IC50 (SARS-CoV-2 [3]) is reported as 105 nM.

With CC(=O)N[C@@H](CCC(N)=O)C(=O)N[C@@H](Cc1ccccc1)C(=O)N[C@@H](CCCNC(=N)N)C(=O)c1nc2ccccc2s1 the EC50 (SARS-CoV-2 [2]) was 0.53 nM and the IC50 (SARS-CoV-2 [3]) was 52 nM.

CC(C)[C@H](NC(=O)OCc1ccccc1)C(=O)N[C@H](C=O)Cc1ccccc1 (Cbz-Val-Phe-aldehyde) showed an EC50 (SARS-CoV-2 [9]) of 1560 nM.

Compound CC(=O)N[C@@H](CO)C(=O)N[C@@H](CCCCN)C(=O)N[C@@H](CC(C)C)C(=O)N[C@@H](CCCNC(=N)N)C(=O)c1nc2ccc(C(=O)N[C@H](C(N)=O)C(C)C)cc2s1 (Ac-SKL[X1]V-NH2) has an EC50 (SARS-CoV-2 [10]) of 307 nM and an EC50 (SARS-CoV-2 [2]) of 489 nM.

N=C(N)NCCCCC(=O)Nc1cc(C(F)(F)F)cc(NC(=O)c2cc(C(=O)Nc3cc(C(F)(F)F)cc(NC(=O)CCCCNC(=N)N)c3O[C@@H]3CCNC3)ncn2)c1O[C@@H]1CCNC1 [BRILACIDIN] showed an IC50 (SARS-CoV-2 [11]) of 12000 nM, an IC50 (SARS-CoV-2 [12]) of 12000 nM and an IC50 (SARS-CoV-2 [13]) of 12000 nM. The IC50 (SARS-CoV-2 [14]) was 12000 nM.

With Nc1ncc2c(n1)Cc1c([nH]c3ccc(-c4ccc(F)cc4)cc13)CC2 the IC50 [15] was 9.3 nM and the IC50 (SARS-CoV-2 [16]) was 73.3 nM.

CC(C)C[C@@H](C=O)NC(=O)[C@H](CC(C)C)NC(=O)[C@H](CC(C)C)NC(=O)OCc1ccccc1 [MG-132] (Cbz-Leu-Leu-Leu-aldehyde) was tested, and the EC50 (SARS-CoV-2 [6]) was 212 nM, the IC50 (Procathepsin L [17]) was 12.3 nM and the EC50 (SARS-CoV-2 [18]) was 210 nM.

For CC[C@@H](C)[C@H](NC(C)=O)C(=O)N[C@@H](CCC(N)=O)C(=O)N[C@@H](Cc1ccccc1)C(=O)N[C@@H](CCCNC(=N)N)C(=O)c1nc2ccccc2s1, the EC50 (SARS-CoV-2 [2]) was 3.6 nM and the IC50 (SARS-CoV-2 [3]) was 102 nM.

CCCC[C@@H](C=O)NC(=O)[C@H](CC(C)C)NC(=O)OCc1ccccc1 [CALPEPTIN] gave an EC50 (SARS-CoV-2 [19]) of 29800 nM and an EC50 (SARS-CoV-2 [20]) of 1030 nM.

In the case of N=C(N/N=C/c1ccncc1)c1nonc1NCNc1nonc1C(=N)N/N=C/c1ccncc1, the IC50 (SARS-CoV-2 [21]) is reported as 16 nM.

CCCCCCCCCC(=O)N[C@@H](Cc1c[nH]c2ccccc12)C(=O)N[C@H](CC(N)=O)C(=O)N[C@@H](CC(=O)O)C(=O)N[C@@H]1C(=O)NCC(=O)N[C@@H](CCCN)C(=O)N[C@@H](CC(=O)O)C(=O)N[C@H](C)C(=O)N[C@@H](CC(=O)O)C(=O)NCC(=O)N[C@H](CO)C(=O)N[C@@H]([C@H](C)CC(=O)O)C(=O)N[C@@H](CC(=O)c2ccccc2N)C(=O)O[C@@H]1C showed an IC50 (Procathepsin L [22]) of 7870 nM, an EC50 (SARS-CoV-2 [23]) of 98800 nM and an EC50 (SARS-CoV-2 [24]) of 226000 nM. It also gave an EC50 (SARS-CoV-2 [8]) of 207000 nM.

With CC(C)CCC[C@@H](C)[C@H]1CC[C@H]2[C@@H]3CC[C@H]4C[C@@H](O[C@@H]5O[C@H](COS(=O)(=O)[O-])[C@@H](O[C@H]6O[C@H](COS(=O)(=O)[O-])[C@@H](O[C@H]7O[C@H](COS(=O)(=O)[O-])[C@@H](O[C@H]8O[C@H](COS(=O)(=O)[O-])[C@@H](OS(=O)(=O)[O-])[C@H](OS(=O)(=O)[O-])[C@H]8OS(=O)(=O)[O-])[C@H](OS(=O)(=O)[O-])[C@H]7OS(=O)(=O)[O-])[C@H](OS(=O)(=O)[O-])[C@H]6OS(=O)(=O)[O-])[C@H](OS(=O)(=O)[O-])[C@H]5OS(=O)(=O)[O-])CC[C@]4(C)[C@H]3CC[C@]12C.[Na+].[Na+].[Na+].[Na+].[Na+].[Na+].[Na+].[Na+].[Na+].[Na+].[Na+].[Na+].[Na+] the EC50 (SARS-CoV-2 [25]) was 0.9 µg/mL, the IC50 [26] was 4270 nM and the IC50 [27] was 9.9 µg/mL.

In the case of Cc1ccc(NC(=O)c2cccc(C(F)(F)F)c2)cc1Nc1nc(-c2ccncc2)c2[nH]ccc2n1, the EC50 (SARS-CoV-2 [28]) is reported as 12300 nM and the Kd [1] is reported as > 30000 nM.

Compound CC(=O)N[C@H]1CC(=O)NCCCC[C@@H](C(=O)N[C@@H](CCCNC(=N)N)C(=O)c2nc3ccccc3s2)NC(=O)[C@H](CC(C)C)NC1=O has an EC50 (SARS-CoV-2 [10]) of 104 nM, an EC50 (SARS-CoV-2 [2]) of 197 nM and an IC50 (SARS-CoV-2 [3]) of 660 nM.

Work on Ic1cccc(/C=N/Nc2nc(N3CCOCC3)nc(N(c3ccccc3)c3ccccc3)n2)c1 yielded a Kd [1] of 32 nM.

In the case of CCC[C@H](NC(=O)[C@@H]1[C@H]2CCC[C@H]2CN1C(=O)[C@@H](NC(=O)[C@@H](NC(=O)c1cnccn1)C1CCCCC1)C(C)(C)C)C(=O)C(=O)NC1CC1, the IC50 (SARS-CoV-2 [29]) is reported as 11600 nM.
